Measurements as given in patent US11053242B2, “[9,10-dimethoxy-3-(2-methylpropyl)-1H,2H,3H,4H,6H,7H,11BH-pyrido-[2,1-a]isoquinolin-2-yl]methanol and compounds, compositions and methods relating thereto” (Neurocrine Biosciences, Inc., priority 2015, dated 2021).

Key:
[1] = target: VMAT2 (human platelet homogenate) (Homo sapiens (Human), UniProt Q05940); assay: Human VMAT2 Ki, slightly modified competition binding procedure (Table 11); conditions: 10 nM 3H-dihydrotetrabenazine;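 also: competition binding with 90 min incubation at 25 °C, after which filter-retained radioligand was measured by scintillation counting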
Protocol: Following incubation at 25° C. for 90 minutes, bound radioligand was collected by rapid filtration onto GF/B glass fiber filters using a Unifilter-96 Harvester (PerkinElmer). Filter plates were pre-treated with 0.1% polyethylenimine and allowed to dry overnight, and following harvesting the filter plates were washed with 800 d VMAT2 binding buffer. Bound radioligand was quantified by scintillation counting using a Topcount NXT (PerkinElmer).

[2] = In vitro human intestinal S9 hydrolysis assay (formation of compound 1-1); conditions: human intestinal S9, 1 uM, 37° C., up to 60 minutes
Protocol: Compounds (1 uM) were incubated with pooled intestinal S9 subcellular preparations (0.5 mg/mL total protein) from SD rats and humans without the addition of protease inhibitor phenylmethylsulfonylflouride. Incubations were carried out in a potassium phosphate buffer (50 mM). All concentrations were relative to the final incubation volume of 125 uL. Incubations were conducted at 37° C. for 0, 5, 10, 20, 40 and 60 minutes in a water bath and terminated by rapid mixing with 150 uL of ice-cold acetonitrile containing 1% formic acid. Internal standard was added and proteins were precipitated and removed by centrifugation prior to LC/MS analysis.

VMAT2 (human platelet homogenate), sequence (Q05940 whole entry): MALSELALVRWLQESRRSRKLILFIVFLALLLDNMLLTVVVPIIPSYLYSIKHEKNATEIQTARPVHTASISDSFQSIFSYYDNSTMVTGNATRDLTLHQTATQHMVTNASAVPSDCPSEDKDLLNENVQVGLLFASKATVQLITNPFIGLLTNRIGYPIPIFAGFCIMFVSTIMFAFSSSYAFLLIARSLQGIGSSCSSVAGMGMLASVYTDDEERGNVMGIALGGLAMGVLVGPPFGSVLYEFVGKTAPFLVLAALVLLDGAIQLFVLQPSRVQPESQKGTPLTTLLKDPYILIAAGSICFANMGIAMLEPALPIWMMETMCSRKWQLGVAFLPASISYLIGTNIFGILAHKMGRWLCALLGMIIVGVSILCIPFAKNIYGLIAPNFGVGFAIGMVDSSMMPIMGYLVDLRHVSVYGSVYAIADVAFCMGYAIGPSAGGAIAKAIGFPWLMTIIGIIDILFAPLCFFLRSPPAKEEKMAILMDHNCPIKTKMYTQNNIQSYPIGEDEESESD

| Compound | Ki [1] | S9 Assay (ability to form compound 1-1) [2] |
| --- | --- | --- |
| COc1cc2c(cc1OC)[C@H]1C[C@@H](COC(=O)NC3(C(=O)O)CCCCC3)[C@H](CC(C)C)CN1CC2 [Compound 5-23, l-[({[(2R,3S,11bR)-9,10-dimethoxy-3-(2-methylpropyl)-1H,2H,3H,4H,6H,7H,11bH-pyrido[2,1-a]isoquinolin-2-yl]methoxy}carbonyl)amino]cyclohexane-1-carboxylic acid] | 10 to 500 nM | ++ |
| COc1cc2c(cc1OC)[C@H]1C[C@@H](COC(=O)CCC(C)(C)C(=O)O)[C@H](CC(C)C)CN1CC2 [Compound 3-12] | 10 to 500 nM | +++ |
| COc1cc2c(cc1OC)[C@H]1C[C@@H](COC(=O)NCC(C)C(=O)O)[C@H](CC(C)C)CN1CC2 (stereo partly drawn) [Compound 5-57, 3-[({[(2R,3S,11bR)-9,10-dimethoxy-3-(2-methylpropyl)-1H,2H,3H,4H,6H,7H,11bH-pyrido[2,1-a]isoquinolin-2-yl]methoxy}carbonyl)amino]-2-methyIpropanoic acid] | > 500 nM | + |
| COc1cc2c(cc1OC)[C@H]1C[C@@H](COC(=O)C(C)(C)CC(=O)O)[C@H](CC(C)C)CN1CC2 [Compound 3-11] | > 500 nM | ++ |
| COc1cc2c(cc1OC)[C@H]1C[C@@H](COC(=O)N(C)CCCC(=O)O)[C@H](CC(C)C)CN1CC2 [Compound 5-25, 4-[({[(2R,3S,11bR)-9,10-dimethoxy-3-(2-methylpropyl)-1H,2H,3H,4H,6H,7H,11bH-pyrido[2,1-a]isoquinolin-2-yl]methoxy}carbonyl)(methyl)amino]butanoic acid] | > 500 nM | + |
| COc1cc2c(cc1OC)[C@H]1C[C@@H](COC(=O)N(C)C(CC(C)C)C(=O)O)[C@H](CC(C)C)CN1CC2 (stereo partly drawn) [Compound 5-46, 2-[({[(2R,3S,11bR)-9,10-dimethoxy-3-(2-methylpropyl)-1H,2H,3H,4H,6H,7H,11bH-pyrido[2,1-a]isoquinolin-2-yl]methoxy}carbonyl)(methyl)amino]-4-methylpentanoic acid] | > 500 nM | ++ |
| COc1cc2c(cc1OC)[C@H]1C[C@@H](COC(=O)NCC(=O)O)[C@H](CC(C)C)CN1CC2 [Compound 5-30] | > 500 nM | + |
| COc1cc2c(cc1OC)[C@H]1C[C@@H](COC(=O)N3CCCC(C(=O)O)C3)[C@H](CC(C)C)CN1CC2 (stereo partly drawn) [Compound 5-14, 1-({[(2R,3S,11bR)-9,10-dimethoxy-3-(2-methylpropyl)-1H,2H,3H,4H,6H,7H,11bH-pyrido[2,1-a]isoquinolin-2-yl]methoxy}carbonyl)piperidine-3-carboxylic acid] | > 500 nM | + |
| COc1cc2c(cc1OC)[C@H]1C[C@@H](COC(=O)CCC(=O)O)[C@H](CC(C)C)CN1CC2 [Compound 3-13] | 10 to 500 nM | ++ |
| COc1cc2c(cc1OC)[C@H]1C[C@@H](COC(=O)N3CCC[C@@H](C(=O)O)C3)[C@H](CC(C)C)CN1CC2 [Compound 5-54, (3R)-1-({[(2R,3S,11bR)-9,10-dimethoxy-3-(2-methylpropyl)-1H,2H,3H,4H,6H,7H,11bH-pyrido[2,1-a]isoquinolin-2-yl]methoxy}carbonyl)piperidine-3-carboxylic acid] | > 500 nM | + |
| COc1cc2c(cc1OC)[C@H]1C[C@@H](COC(=O)CC3(CC(=O)O)CCCC3)[C@H](CC(C)C)CN1CC2 [Compound 3-9] | 10 to 500 nM | ++ |
| COc1cc2c(cc1OC)[C@H]1C[C@@H](COC(=O)N3CC(C(=O)O)C3)[C@H](CC(C)C)CN1CC2 [Compound 5-27, 1-({[(2R,3S,11bR)-9,10-dimethoxy-3-(2-methylpropyl)-1H,2H,3H,4H,6H,7H,11bH-pyrido[2,1-a]isoquinolin-2-yl]methoxy}carbonyl)azetidine-3-carboxylic acid] | > 500 nM | + |

The next lines start with the values.

| Ki [1] | S9 Assay (ability to form compound 1-1) [2] | Compound |
| --- | --- | --- |
| 10 to 500 nM | + | COc1cc2c(cc1OC)[C@H]1C[C@@H](COC(=O)N3CCC(C(=O)O)C3)[C@H](CC(C)C)CN1CC2 (stereo partly drawn) [Compound 5-49, 1-({[(2R,3S,11bR)-9,10-dimethoxy-3-(2-methylpropyl)-1H,2H,3H,4H,6H,7H,11bH-pyrido[2,1-a]isoquinolin-2-yl]methoxy}carbonyl)pyrrolidine-3-carboxylic acid] |
| < 10 nM | +++ | COc1cc2c(cc1OC)[C@H]1C[C@@H](COC(=O)CC3CCN(C)C3)[C@H](CC(C)C)CN1CC2 (stereo partly drawn) [Compound 2-10, [(2R,3S,11bR)-9,10-dimethoxy-3-(2-methylpropyl)-1H,2H,3H,4H,6H,7H,11bH-pyrido[2,1-a]isoquinolin-2-yl]methyl 2-(1-methylpyrrolidin-3-yl)acetate] |
| < 10 nM | ++ | COc1cc2c(cc1OC)[C@H]1C[C@@H](COC(=O)[C@H]3CCNC3)[C@H](CC(C)C)CN1CC2 [Compound 4-7, [(2R,3S,11bR)-9,10-dimethoxy-3-(2-methylpropyl)-1H,2H,3H,4H,6H,7H,11bH-pyrido[2,1-a]isoquinolin-2-yl]methyl (3S)-pyrrolidine-3-carboxylate] |
| 10 to 500 nM | + | COc1cc2c(cc1OC)[C@H]1C[C@@H](COC(=O)NCC3(CC(=O)O)CCCCC3)[C@H](CC(C)C)CN1CC2 [Compound 5-34, 2-(1-{[({[(2R,3S,11bR)-9,10-dimethoxy-3-(2-methylpropyl)-1H,2H,3H,4H,6H,7H,11bH-pyrido[2,1-a]isoquinolin-2-yl]methoxy}carbonyl)amino]methyl}cyclohexyl)acetic acid] |
| < 10 nM | + | COc1cc2c(cc1OC)[C@H]1C[C@@H](COC(=O)N3CCOC(CN(C)C)C3)[C@H](CC(C)C)CN1CC2 (stereo partly drawn) [Compound 5-4, [(2R,3S,11bR)-9,10-dimethoxy-3-(2-methylpropyl)-1H,2H,3H,4H,6H,7H,11bH-pyrido[2,1-a]isoquinolin-2-yl]methyl 2-[(dimethylamino)methyl]morpholine-4-carboxylate] |
| < 10 nM | + | COc1cc2c(cc1OC)[C@H]1C[C@@H](COC(=O)N3CC(C)NC(C)C3)[C@H](CC(C)C)CN1CC2 (stereo partly drawn) [Compound 6-11, [(2R,3S,11bR)-9,10-dimethoxy-3-(2-methylpropyl)-1H,2H,3H,4H,6H,7H,11bH-pyrido[2,1-a]isoquinolin-2-yl]methyl 3,5-dimethylpiperazine-1-carboxylate] |
| 10 to 500 nM | + | COc1cc2c(cc1OC)[C@H]1C[C@@H](COC(=O)NCC[C@H](O)C(=O)O)[C@H](CC(C)C)CN1CC2 [Compound 5-56, (2S)-4-[({[(2R,3S,11bR)-9,10-dimethoxy-3-(2-methylpropyl)-1H,2H,3H,4H,6H,7H,11bH-pyrido[2,1-a]isoquinolin-2-yl]methoxy}carbonyl)amino]-2-hydroxybutanoic acid] |
| < 10 nM | ++ | COc1cc2c(cc1OC)[C@H]1C[C@@H](COC(=O)CC3CCCNC3)[C@H](CC(C)C)CN1CC2 (stereo partly drawn) [Compound 4-10, [(2R,3S,11bR)-9,10-dimethoxy-3-(2-methylpropyl)-1H,2H,3H,4H,6H,7H,11bH-pyrido[2,1-a]isoquinolin-2-yl]methyl 2-(piperidin-3-yl)acetate] |
| 10 to 500 nM | +++ | COc1cc2c(cc1OC)[C@H]1C[C@@H](COC(=O)CC(C)CC(=O)O)[C@H](CC(C)C)CN1CC2 (stereo partly drawn) [Compound 3-3, 5-{[(2R,3S,11bR)-9,10-dimethoxy-3-(2-methylpropyl)-1H,2H,3H,4H,6H,7H,11bH-pyrido[2,1-a]isoquinolin-2-yl]methoxy}-3-methyl-5-oxopentanoic acid] |
| < 10 nM | ++ | COc1cc2c(cc1OC)[C@H]1C[C@@H](COC(=O)C3CCNC3)[C@H](CC(C)C)CN1CC2 (stereo partly drawn) [Compound 4-8, [(2R,3S,11bR)-9,10-dimethoxy-3-(2-methylpropyl)-1H,2H,3H,4H,6H,7H,11bH-pyrido[2,1-a]isoquinolin-2-yl]methyl pyrrolidine-3-carboxylate] |
| < 10 nM | + | COc1cc2c(cc1OC)[C@H]1C[C@@H](COC(=O)NCCC(=O)O)[C@H](CC(C)C)CN1CC2 [Compound 5-1, 3-[({[(2R,3S,11bR)-9,10-dimethoxy-3-(2-methylpropyl)-1H,2H,3H,4H,6H,7H,11bH-pyrido[2,1-a]isoquinolin-2-yl]methoxy}carbonyl)amino]propanoic acid] |
| < 10 nM | +++ | COc1cc2c(cc1OC)[C@H]1C[C@@H](COC(=O)C3CCN(C)CC3)[C@H](CC(C)C)CN1CC2 [Compound 2-25, [(2R,3S,11bR)-9,10-dimethoxy-3-(2-methylpropyl)-1H,2H,3H,4H,6H,7H,11bH-pyrido[2,1-a]isoquinolin-2-yl]methyl 1-methylpiperidine-4-carboxylate] |
| < 10 nM | +++ | COc1cc2c(cc1OC)[C@H]1C[C@@H](COC(=O)C[C@@H]3CCCN3)[C@H](CC(C)C)CN1CC2 [Compound 4-36] |
| < 10 nM | ++ | COc1cc2c(cc1OC)[C@H]1C[C@@H](COC(=O)N(C)C(C(=O)O)C(C)C)[C@H](CC(C)C)CN1CC2 (stereo partly drawn) [Compound 5-32, 2-[({[(2R,3S,11bR)-9,10-dimethoxy-3-(2-methylpropyl)-1H,2H,3H,4H,6H,7H,11bH-pyrido[2,1-a]isoquinolin-2-yl]methoxy}carbonyl)(methyl)amino]-3-methylbutanoic acid] |
| < 10 nM | + | COc1cc2c(cc1OC)[C@H]1C[C@@H](COC(=O)N3C[C@@H](C)N[C@@H](C)C3)[C@H](CC(C)C)CN1CC2 [Compound 6-6, [(2R,3S,11bR)-9,10-dimethoxy-3-(2-methylpropyl)-1H,2H,3H,4H,6H,7H,11bH-pyrido[2,1-a]isoquinolin-2-yl]methyl (3R,5S)-3,5-dimethylpiperazine-1-carboxylate] |
